In ChEMBL document CHEMBL1201862, “PubChem BioAssay data set” (2004):
Activity calls are given as the source filed them.

Columns and labels:
[1] = luciferase reporter signal suppression in cells – H4 neuroglioma cells, luminescence, dose response (AID 1990); format: functional, cell-based
Paired box protein Pax-8 = Paired box protein Pax-8 (Homo sapiens, UniProt Q06710); assay: PAX8 transcriptional activity inhibition in RMG-I – RMG-I cells, luciferase, cherry-pick, dose response (AID 687027); format: functional, cell-based;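 further: luciferase reporter driven by Pax8 target thyroperoxidase promoter measured by SteadyGlo luminescence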
[2] = target: T1, Serine/threonine-protein phosphatase (Candida dubliniensis (strain CD36 / CBS 7987 / NCPF 3949 / NRRLY-17841) (Yeast), UniProt B9W6M3); assay: blockers of CaCl2-induced CDRE-lacZ signaling – S. cerevisiae, luminescence, secondary, dose response (AID 2388); format: functional, cell-based;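 further: yeast reporter cells carrying a calcineurin-responsive lacZ construct stimulated with calcium chloride; luminescent beta-galactosidase reporter signal in whole cells rather than isolated phosphatase activity; potency for inhibition where a drop in reporter signal means calcineurin blockade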
T1 sequence (B9W6M3 whole entry): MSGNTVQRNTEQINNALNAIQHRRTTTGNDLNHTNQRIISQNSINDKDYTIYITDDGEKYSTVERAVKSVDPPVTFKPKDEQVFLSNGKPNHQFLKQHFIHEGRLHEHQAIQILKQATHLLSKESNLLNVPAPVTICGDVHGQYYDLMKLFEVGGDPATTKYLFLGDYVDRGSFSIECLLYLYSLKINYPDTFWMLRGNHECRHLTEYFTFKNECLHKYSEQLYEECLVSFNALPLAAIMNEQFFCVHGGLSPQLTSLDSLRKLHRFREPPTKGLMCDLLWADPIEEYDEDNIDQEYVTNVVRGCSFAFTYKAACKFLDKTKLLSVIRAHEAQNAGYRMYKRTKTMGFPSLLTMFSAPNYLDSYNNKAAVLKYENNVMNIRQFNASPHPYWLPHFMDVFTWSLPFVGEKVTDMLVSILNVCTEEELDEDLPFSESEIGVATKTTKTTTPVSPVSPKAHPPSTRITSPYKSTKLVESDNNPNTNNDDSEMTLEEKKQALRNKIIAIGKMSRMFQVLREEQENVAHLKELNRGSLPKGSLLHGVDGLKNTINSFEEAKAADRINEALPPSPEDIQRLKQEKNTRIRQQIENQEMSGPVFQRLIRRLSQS

[3] = reduction of Shn3 3'UTR-driven luciferase in osteoblasts – cell-based, Clone20 osteoblasts, firefly luciferase, cherry-picked, dose response (AID 624132); format: functional;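 further: firefly luciferase luminescence from reporter carrying the Shn3 3'UTR in osteoblasts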
cells = format: functional
[4] = HIV-1 AD8 envelope cell-cell fusion blockers – cherry-pick, dose response (AID 652062); format: functional, cell-based;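 further: luciferase signal from cell-cell fusion driven by HIV-1 clade B AD8 Env; potency is for inhibitors of fusion seen as a drop in luminescence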

Paired box protein Pax-8, sequence (Q06710 whole entry): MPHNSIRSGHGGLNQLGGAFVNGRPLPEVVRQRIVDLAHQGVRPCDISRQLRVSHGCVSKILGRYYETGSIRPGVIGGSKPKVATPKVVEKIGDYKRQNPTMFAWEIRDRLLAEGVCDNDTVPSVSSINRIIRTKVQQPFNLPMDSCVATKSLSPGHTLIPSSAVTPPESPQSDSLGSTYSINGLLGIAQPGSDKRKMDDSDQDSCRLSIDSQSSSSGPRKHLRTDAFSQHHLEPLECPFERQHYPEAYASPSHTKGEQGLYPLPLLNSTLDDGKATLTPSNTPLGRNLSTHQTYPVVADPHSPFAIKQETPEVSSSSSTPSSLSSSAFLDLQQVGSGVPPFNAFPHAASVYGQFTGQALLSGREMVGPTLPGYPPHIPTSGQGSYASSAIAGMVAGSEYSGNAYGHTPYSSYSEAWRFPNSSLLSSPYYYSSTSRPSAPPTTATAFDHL

With `COc1cccc(/C=N/Nc2ccc([N+](=O)[O-])cn2)c1O` the EC50 [1] was 2.97 µM (active) and the AC50 (Paired box protein Pax-8) was 6.41 µM (active).

For `Oc1c(C(c2ccccc2Cl)N2CCCC2)ccc2cccnc12` (stereo unspecified), the EC50 [2] was > 180 µM (inactive), the AC50 [3] was 5.77 µM (active) and the IC50 (cells) was 13.2 µM (active).

With `CCc1ccc(S(=O)(=O)/N=C2\C=C(Nc3ccc(C(=O)O)cc3)C(=O)c3ccccc32)cc1` the AC50 [4] was 3.52 µM (active).
